Measurements published in ChEMBL document CHEMBL4145492, “Discovery of biphenyl-substituted diarylpyrimidines as non-nucleoside reverse transcriptase inhibitors with high potency against wild-type and mutant HIV-1” (Eur J Med Chem, 2018).
pEC50, pIC50: −log10 of the molar value.

Key:
[1] = test system: Human immunodeficiency virus 1; experiment: Antiviral activity against wild type HIV1 3B infected in human MT4 cells assessed as reduction of virus-induced cytopathic effect after 4 days by MTT assay; type: functional, organism-based; conditions: Human immunodeficiency virus 1, 3B, MT4, 96 h
[2] = test system: Human immunodeficiency virus 2; experiment: Antiviral activity against HIV2 ROD infected in human MT4 cells assessed as reduction of virus-induced cytopathic effect after 4 days by MTT assay; type: functional, organism-based; conditions: Human immunodeficiency virus 2, ISOLATE ROD, MT4, 96 h
[3] = Cytotoxicity against human MT4 cells assessed as reduction in cell viability after 4 days by MTT assay; type: cell-based
[4] = target: Human immunodeficiency virus type 1 reverse transcriptase (Human immunodeficiency virus 1, UniProt Q72547); experiment: Inhibition of recombinant wild type HIV1 reverse transcriptase p66/p51 using poly (rA)/anoligo (dT)16 as template/primer assessed as inhibition of biotin-dUTP incorporation after 40 mins by Pico-Green staining based fluorescence assay
[5] = Selectivity index, ratio of CC50 for human MT4 cells to EC50 for wild type HIV1 3B; type: toxicity; conditions: read-out: Ratio CC50/EC50
[6] = test system: Human immunodeficiency virus 1; experiment: Antiviral activity against HIV1 harboring reverse transcriptase E138K mutant infected in human MT4 cells assessed as reduction of virus-induced cytopathic effect after 4 days by MTT assay; type: functional, organism-based; conditions: Human immunodeficiency virus 1, MT4, 96 h
[7] = test system: Human immunodeficiency virus 1; experiment: Antiviral activity against HIV1 harboring reverse transcriptase L100I mutant infected in human MT4 cells assessed as reduction of virus-induced cytopathic effect after 4 days by MTT assay; type: functional, organism-based; conditions: Human immunodeficiency virus 1, MT4, 96 h
[8] = test system: Human immunodeficiency virus 1; experiment: Antiviral activity against HIV1 RES056 harboring reverse transcriptase K103 N/Y181C double mutant infected in human MT4 cells assessed as reduction of virus-induced cytopathic effect after 4 days by MTT assay; type: functional, organism-based; conditions: Human immunodeficiency virus 1, RES056, MT4, 96 h
[9] = test system: Human immunodeficiency virus 1; experiment: Antiviral activity against HIV1 harboring reverse transcriptase Y181C mutant infected in human MT4 cells assessed as reduction of virus-induced cytopathic effect after 4 days by MTT assay; type: functional, organism-based; conditions: Human immunodeficiency virus 1, MT4, 96 h
[10] = test system: Human immunodeficiency virus 1; experiment: Antiviral activity against HIV1 harboring reverse transcriptase K103N mutant infected in human MT4 cells assessed as reduction of virus-induced cytopathic effect after 4 days by MTT assay; type: functional, organism-based; conditions: Human immunodeficiency virus 1, MT4, 96 h
[11] = test system: Human immunodeficiency virus 1; experiment: Antiviral activity against HIV1 harboring reverse transcriptase Y188L mutant infected in human MT4 cells assessed as reduction of virus-induced cytopathic effect after 4 days by MTT assay; type: functional, organism-based; conditions: Human immunodeficiency virus 1, MT4, 96 h
[12] = test system: Human immunodeficiency virus 1; experiment: Antiviral activity against HIV1 harboring reverse transcriptase F227L/V106A double mutant infected in human MT4 cells assessed as reduction of virus-induced cytopathic effect after 4 days by MTT assay; type: functional, organism-based; conditions: Human immunodeficiency virus 1, MT4, 96 h
[13] = test system: Human immunodeficiency virus 1; experiment: Potency index, ratio of nevirapine EC50 to test compound EC50 for wild type HIV1 3B infected in human MT4 cells; type: functional

pIC50 [4]	Structure (SMILES)	pEC50 [1]	pEC50 [2]	CC50 at 96 h [3]	selectivity ratio [5]	pEC50 [6]	pEC50 [7]	pEC50 [8]	pEC50 [9]	pEC50 [10]	pEC50 [11]	pEC50 [12]	Ratio EC50 [13]
7.70	Cc1cc(-c2cccc(Cl)c2)cc(C)c1Nc1ccnc(Nc2ccc(C#N)cc2)n1	8.28	< 5.67	2.16 µM	409	–	–	–	–	–	–	–	–
7.74	Cc1ccccc1-c1cc(C)c(Nc2ccnc(Nc3ccc(C#N)cc3)n2)c(C)c1	8.62	< 5.42	3.82 µM	1580	–	–	–	–	–	–	–	–
7.24	Cc1cc(-c2cccc(C(F)(F)F)c2)cc(C)c1Nc1ccnc(Nc2ccc(C#N)cc2)n1	8.08	< 5.39	4.03 µM	477	–	–	–	–	–	–	–	–
7.68	COc1ccccc1-c1cc(C)c(Nc2ccnc(Nc3ccc(C#N)cc3)n2)c(C)c1	8.52	< 6.03	0.94 µM	316	–	–	–	–	–	–	–	–
7.57	COc1cccc(-c2cc(C)c(Nc3ccnc(Nc4ccc(C#N)cc4)n3)c(C)c2)c1	8.54	< 5.52	2.99 µM	1050	–	–	–	–	–	–	–	–
7.43	Cc1cc(-c2c(C)cccc2C)cc(C)c1Nc1ccnc(Nc2ccc(C#N)cc2)n1	8.15	< 5.59	2.59 µM	364	–	–	–	–	–	–	–	–
7.80	Cc1cc(-c2ccccc2)cc(C)c1Nc1ccnc(Nc2ccc(C#N)cc2)n1	8.55	< 5.38	4.17 µM	1520	–	–	–	–	–	–	–	10
7.92	Cc1cc(-c2cccc(F)c2)cc(C)c1Nc1ccnc(Nc2ccc(C#N)cc2)n1	8.77	< 5.39	4.12 µM	2380	–	–	–	–	–	–	–	–
7.70	Cc1cc(-c2ccccc2Cl)cc(C)c1Nc1ccnc(Nc2ccc(C#N)cc2)n1	8.59	< 5.40	3.99 µM	1150	–	–	–	–	–	–	–	–
7.52	Cc1cccc(-c2cc(C)c(Nc3ccnc(Nc4ccc(C#N)cc4)n3)c(C)c2)c1	8.23	< 5.44	3.67 µM	622	–	–	–	–	–	–	–	–
7.34	Cc1cc(-c2ccccc2C(F)(F)F)cc(C)c1Nc1ccnc(Nc2ccc(C#N)cc2)n1	8.16	< 5.38	4.21 µM	606	–	–	–	–	–	–	–	–
7.72	Cc1ccc(-c2cc(C)c(Nc3ccnc(Nc4ccc(C#N)cc4)n3)c(C)c2)cc1	8.44	< 5.25	5.57 µM	1540	–	–	–	–	–	–	–	–
7.59	Cc1cc(-c2ccc(Cl)cc2)cc(C)c1Nc1ccnc(Nc2ccc(C#N)cc2)n1	8.43	< 5.38	4.19 µM	1130	–	–	–	–	–	–	–	–
7.57	COc1ccc(-c2cc(C)c(Nc3ccnc(Nc4ccc(C#N)cc4)n3)c(C)c2)cc1	8.62	< 5.54	2.89 µM	1200	–	–	–	–	–	–	–	–
6.94	Cc1cc(C)cc(-c2cc(C)c(Nc3ccnc(Nc4ccc(C#N)cc4)n3)c(C)c2)c1	7.64	< 5.38	4.14 µM	177	–	–	–	–	–	–	–	–
7.17	Cc1cc(-c2ccc(C(F)(F)F)cc2)cc(C)c1Nc1ccnc(Nc2ccc(C#N)cc2)n1	8.00	< 5.38	4.16 µM	418	–	–	–	–	–	–	–	–
7.28	Cc1cc(-c2cc(F)cc(F)c2)cc(C)c1Nc1ccnc(Nc2ccc(C#N)cc2)n1	7.48	< 5.41	3.91 µM	120	–	–	–	–	–	–	–	–
7.34	Cc1cc(-c2cc(Cl)cc(Cl)c2)cc(C)c1Nc1ccnc(Nc2ccc(C#N)cc2)n1	7.47	< 5.37	4.29 µM	125	–	–	–	–	–	–	–	–
–	O=C1Nc2ccc(Cl)cc2[C@@](C#CC2CC2)(C(F)(F)F)O1 [EFAVIRENZ]	9.37	–	> 2 µM	–	8.80	9.00	7.40	8.82	7.72	7.23	7.30	–
–	Cc1cc(C#N)cc(C)c1Oc1nc(Nc2ccc(C#N)cc2)nc(N)c1Br [ETRAVIRINE]	8.82	–	> 2 µM	> 1320	8.14	8.57	8.00	8.09	8.82	8.10	8.15	–
–	Cc1ccnc2c1NC(=O)c1cccnc1N2C1CC1 [NEVIRAPINE]	7.62	–	> 4 µM	–	7.24	6.40	< 5.40	< 5.40	5.73	< 5.40	< 5.40	–
–	Cc1cn([C@H]2C[C@H](N=[N+]=[N-])[C@@H](CO)O2)c(=O)[nH]c1=O [ZIDOVUDINE]	8.68	–	> 2 µM	> 971	8.66	8.89	8.82	8.77	8.72	8.80	9.00	–

Structure (SMILES)	pIC50 [4]	pEC50 [1]	pEC50 [2]	CC50 at 96 h [3]	selectivity ratio [5]	pEC50 [6]	pEC50 [7]	pEC50 [8]	pEC50 [9]	pEC50 [10]	pEC50 [11]	pEC50 [12]	Ratio EC50 [13]
Cc1cc(-c2ccccc2F)cc(C)c1Nc1ccnc(Nc2ccc(C#N)cc2)n1	8.05	8.85	< 5.67	2.12 µM	1540	8.11	7.92	6.64	8.10	8.49	6.89	≤ 6.41	–
Cc1cc(-c2cccc(C#N)c2)cc(C)c1Nc1ccnc(Nc2ccc(C#N)cc2)n1	7.96	8.82	< 6.04	0.92 µM	601	8.09	7.77	6.57	7.96	8.64	< 6.04	< 6.04	–
Cc1cc(-c2ccc(C#N)cc2)cc(C)c1Nc1ccnc(Nc2ccc(C#N)cc2)n1	7.85	9.00	< 5.68	–	2060	8.70	8.89	8.00	8.82	9.08	7.96	≤ 6.96	–
Cc1cc(-c2ccc(F)cc2)cc(C)c1Nc1ccnc(Nc2ccc(C#N)cc2)n1	7.77	8.85	< 5.40	4.17 µM	2950	8.09	8.00	6.72	8.08	8.64	6.80	6.49	–
